# From patent US5213962A, “Purification, detection and methods of use of protease Nexin-2” (The Regents of the University of California, priority 1992, dated 1993)
# Test system: platelets
# Assay: Secretion of PN-2/βAPP from platelets after activation by agonists
# Type: cell-based
# Conditions: freshly washed platelets, 10 minutes
# Procedure: Secretion on PN-2/βAPP from platelets after activation by the agonists collagen or thrombin was studied. Briefly, fresh platelets washed by albumin density gradient centrifugation and gel filtration were incubated for 30 minutes at 37° C. in the absence or presence of the combined metabolic inhibitors antimycin A (15 μg/ml), 2-deoxy-D-glucose (30 mM), and D-gluconic acid δ-lactone (10 mM). The platelets were then placed into a cuvette 37° C. water bath with stirring at 1,200 rpm, and collagen (20 μg/ml or α-thrombin U/ml) was added. After 10 minutes, the samples were centrifuged at 12,000×g for 4 minutes and supernatants were collected. Aliquots were removed and quantitated for PN-2/βAPP by incubation with ^125 I-EGF BP and analysis of complex formation by SDS-PAGE and autoradiography as in Example 15. Autoradiograms were aligned with dried gels; ^125 I-EGF BP:PN-2/βAPP complexes were located, excised and quantitated in a […]. Aliquots were also quantitated for platelet markers as follows: total adenine nucleotide (ADP/ATP) secretion was measured by the method of Homsen et al., Anal. Biochem., 46:489 (1972); low affinity platelet factor 4 (LA-PF4) secretion was quantitated by the method of Rucinski et al., Blood, 53:47 (1979); and cytosolic lactate dehydrogenase (LDH) loss was assessed by the procedure of Wroblewski and Ladue, Proc. Soc. Exper. […]
row,Substance,secretion of total PN-2/βAPP present in the platelets
1,thrombin,approximately one-half
2,collagen,approximately one-half
